In this test the target is FGFR2 (Homo sapiens, UniProt P21802). As to the kind of experiment: FGFR wild type enzyme assay (HTRF KinEASE-TK), FGFR2. Conditions: Enz FGFR2 (nM), FGFR2 wild type enzyme assay.
Sequence of FGFR2 (P21802 399-821 limits assumed): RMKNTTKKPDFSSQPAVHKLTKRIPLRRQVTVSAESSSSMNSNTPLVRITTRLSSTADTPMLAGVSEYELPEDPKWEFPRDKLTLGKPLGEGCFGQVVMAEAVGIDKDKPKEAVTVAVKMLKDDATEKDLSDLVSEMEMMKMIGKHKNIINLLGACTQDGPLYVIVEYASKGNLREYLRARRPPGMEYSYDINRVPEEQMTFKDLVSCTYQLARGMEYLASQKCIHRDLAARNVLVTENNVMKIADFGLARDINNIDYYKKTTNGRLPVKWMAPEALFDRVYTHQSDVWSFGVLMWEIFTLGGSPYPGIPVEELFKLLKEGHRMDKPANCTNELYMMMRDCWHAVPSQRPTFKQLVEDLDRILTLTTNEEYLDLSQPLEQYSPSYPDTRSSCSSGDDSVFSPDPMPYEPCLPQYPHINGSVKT
On to `N#Cc1ccccc1Sc1cc(-c2cnn([C@H]3CCCNC3)n2)cn2ncc(C#N)c12` [Example 463, (S)-4-((2-cyanophenyl)thio)-6-(2-(piperidin-3-yl)-2H-1,2,3-triazol-4-yl)pyrazolo[1,5-a]pyridine-3-carbonitrile], for which half-maximal inhibition (IC50) required 6 nM. This counts as single-digit nanomolar.

Take `N#Cc1ccccc1Sc1cc(-c2cn([C@H]3CCNC3)nn2)cn2ncc(C#N)c12` [Example 464, (S)-4-((2-cyanophenyl)thio)-6-(1-(pyrrolidin-3-yl)-1H-1,2,3-triazol-4-yl)pyrazolo[1,5-a]pyridine-3-carbonitrile]: the midpoint of inhibition, the IC50, lay at 5 nM.

`N#Cc1cnn2cc(-c3cn([C@H]4CCNC4)nn3)cc(Sc3ncccc3F)c12` [Example 465, (S)-4-((3-fluoropyridin-2-yl)thio)-6-(1-(pyrrolidin-3-yl)-1H-1,2,3-triazol-4-yl)pyrazolo[1,5-a]pyridine-3-carbonitrile]: the IC50 (in general, the point on the concentration scale where inhibition reaches its midpoint) worked out at 11 nM.

Take `Cn1cc(-c2cc(Sc3ncccc3F)c3c(C#N)cnn3c2)cn1` [Example 466, 4-((3-fluoropyridin-2-yl)thio)-6-(1-methyl-1H-pyrazol-4-yl)pyrazolo[1,5-a]pyridine-3-carbonitrile]: the IC50 was determined as 6 nM. Against the preceding compound, the IC50 is about 1.8-fold lower.

For `CN1CCN(c2ccc(-c3cc(Sc4ncccc4F)c4c(C#N)cnn4c3)cc2)CC1` [Example 467, 4-((3-fluoropyridin-2-yl)thio)-6-(4-(4-methylpiperazin-1-yl)phenyl)pyrazolo[1,5-a]pyridine-3-carbonitrile], half-maximal inhibition (IC50) was put at 0.4 nM.

The compound `Cn1cc(-c2cc(Sc3ccccc3C#N)c3c(C#N)cnn3c2)cn1` [Example 468, 4-((2-cyanophenyl)thio)-6-(1-methyl-1H-pyrazol-4-yl)pyrazolo[1,5-a]pyridine-3-carbonitrile] showed an IC50 of 1 nM.

In the case of `CN1CCN(c2ccc(-c3cc(Sc4ccccc4C#N)c4c(C#N)cnn4c3)cc2)CC1` [Example 469, 4-((2-cyanophenyl)thio)-6-(4-(4-methylpiperazin-1-yl)phenyl)pyrazolo[1,5-a]pyridin-3-carbonitrile], the IC50 is 0.2 nM.

With `Cc1c(-c2cc(Sc3ccc(F)cc3C#N)c3c(C#N)cnn3c2)cnn1[C@H]1CC[C@](O)(CO)CC1` [Example 470, 4-((2-cyano-4-fluorophenyl)thio)-6-(1-((1s,4s)-4-hydroxy-4-(hydroxymethyl)cyclohex-yl)-5-methyl-1H-pyrazol-4-yl)pyrazolo[1,5-a]pyridine-3-carbonitrile], the IC50 is 1 nM.

Take `CC1(C)C[C@H](n2cc(-c3cc(Sc4ncccc4F)c4c(C#N)cnn4c3)cn2)CN1` [Example 471, (S)-6-(1-(5,5-dimethylpyrrolidin-3-yl)-1H-pyrazol-4-yl)-4-((3-fluoropyridin-2-yl)thio)pyrazolo[1,5-a]pyridine-3-carbonitrile]: 1 nM corresponded to half-maximal inhibition (IC50). This lies in the single-digit nanomolar range.

For the compound `CC1(C)C[C@H](n2cc(-c3cc(Sc4ccccc4C#N)c4c(C#N)cnn4c3)cn2)CN1` [Example 472, (S)-4-((2-cyanophenyl)thio)-6-(1-(5,5-dimethylpyrrolidin-3-yl)-1H-pyrazol-4-yl)pyrazolo[1,5-a]pyridine-3-carbonitrile], the IC50 is 0.3 nM.

On to `CC1(C)C[C@@H](n2cc(-c3cc(Sc4ncccc4F)c4c(C#N)cnn4c3)cn2)CN1` [Example 473, (R)-6-(1-(5,5-dimethylpyrrolidin-3-yl)-1H-pyrazol-4-yl)-4-((3-fluoropyridin-2-yl)thio)pyrazolo[1,5-a]pyridine-3-carbonitrile], for which the IC50 worked out at 1 nM.

In turn, `CC1(C)C[C@@H](n2cc(-c3cc(Sc4ccccc4C#N)c4c(C#N)cnn4c3)cn2)CN1` [Example 474, (R)-4-((2-cyanophenyl)thio)-6-(1-(5,5-dimethylpyrrolidin-3-yl)-1H-pyrazol-4-yl)pyrazolo[1,5-a]pyridine-3-carbonitrile] came in with an IC50 of 0.2 nM.

Regarding `C[C@H](O)C(=O)N1CCC(n2cc(-c3cc(Sc4ccc(F)cc4C#N)c4c(C#N)cnn4c3)cn2)CC1` [Example 475, (S)-4-((2-cyano-4-fluorophenyl)thio)-6-(1-(1-(2-hydroxypropanoyl)piperidin-4-yl)-1H-pyrazol-4-yl)pyrazolo[1,5-a]pyridine-3-carbonitrile], the midpoint of inhibition, the IC50, lay at 1 nM.

As for `N#Cc1cnn2cc(-c3cnn([C@H]4CCN(C5CC(O)C5)C4)c3)cc(Sc3ncccc3F)c12` (stereo partly drawn) [Example 476, (S)-4-((3-fluoropyridin-2-yl)thio)-6-(1-(1-(3-hydroxycyclobutyl)pyrroli-din-3-yl)-1H-pyrazol-4-yl)pyrazolo[1,5-a]pyridine-3-carbonitrile], the IC50 was 1 nM.

With `CC(C)(O)CN1CC[C@H](n2cc(-c3cc(Sc4ncccc4F)c4c(C#N)cnn4c3)cn2)C1` [Example 477, (S)-4-((3-fluoropyridin-2-yl)thio)-6-(1-(1-(2-hydroxy-2-methylpropyl)pyrrolidin-3-yl)-1H-pyrazol-4-y)pyrazolo[1,5-a]pyridine-3-carbonitrile], half-maximal inhibition (IC50) required 1 nM.

Take `COC(=O)N1CCC(n2cc(-c3cc(Sc4ncccc4F)c4c(C#N)cnn4c3)cn2)CC1` [Example 478, methyl 4-(4-(3-cyano-4-((3-fluoropyridin-2-yl)thio)pyrazolo[1,5-a]pyridin-6-yl)-1H-pyrazol-1-yl)piperidine-1-carboxylate]: the midpoint of inhibition, the IC50, lay at 1 nM.

`COC(=O)N1CCC[C@H](n2cc(-c3cc(Sc4ncccc4F)c4c(C#N)cnn4c3)cn2)C1` [Example 479, methyl (S)-3-(4-(3-cyano-4-((3-fluoropyridin-2-yl)thio)pyrazolo[1,5-a]pyridin-6-yl)-1H-pyrazol-1-yl)piperidine-1-carboxylate]: half-maximal inhibition (IC50) required 1 nM.

As for `COC(=O)N1CC[C@H](n2cc(-c3cc(Sc4ncccc4F)c4c(C#N)cnn4c3)cn2)C1` [Example 480, methyl (S)-3-(4-(3-cyano-4-((3-fluoropyridin-2-yl)thio)pyrazolo[1,5-a]pyridin-6-yl)-1H-pyrazol-1-yl)pyrrolidine-1-carboxylate], the IC50 worked out at 1 nM.

The compound `COC(=O)N1CCC(n2cc(-c3cc(Sc4ccccc4C#N)c4c(C#N)cnn4c3)cn2)CC1` [Example 481, methyl 4-(4-(3-cyano-4-((2-cyanophenyl)thio)pyrazolo [1,5-a]pyridin-6-yl)-1H-pyrazol-1-yl)piperidine-1-carboxylate] had an IC50 of 4 nM.

In the case of `COC(=O)N1CCC[C@H](n2cc(-c3cc(Sc4ccccc4C#N)c4c(C#N)cnn4c3)cn2)C1` [Example 482, methyl (S)-3-(4-(3-cyano-4-((2-cyanophenyl)thio)pyrazolo [1,5-a]pyridin-6-yl)-1H-pyrazol-1-yl)piperidine-1-carboxylate], the IC50 turned out to be 1 nM.

On to `COC(=O)N1CC[C@H](n2cc(-c3cc(Sc4ccccc4C#N)c4c(C#N)cnn4c3)cn2)C1` [Example 483, methyl (S)-3-(4-(3-cyano-4-((2-cyanophenyl)thio)pyrazolo [1,5-a]pyridin-6-yl)-1H-pyrazol-1-yl)pyrrolidine-1-carboxylate], for which inhibition was half-maximal at 0.5 nM (IC50).

Turning to `N#Cc1ccccc1Sc1cc(-c2cnn([C@H]3CCN(C(=O)CO)C3)c2)cn2ncc(C#N)c12` [Example 484, (S)-4-((2-cyanophenyl)thio)-6-(1-(1-(2-hydroxyacetyl)pyrrolidin-3-yl)-1H-pyrazol-4-yl)pyrazolo[1,5-a]pyridine-3-carbonitrile], half-maximal inhibition (IC50) was put at 0.4 nM.

For `N#Cc1ccccc1Sc1cc(-c2cnn([C@H]3CCN(CCO)C3)c2)cn2ncc(C#N)c12` [Example 485, (S)-4-((2-cyanophenyl)thio)-6-(1-(1-(2-hydroxyethyl)pyrrolidin-3-yl)-1H-pyrazol-4-yl)pyrazolo[1,5-a]pyridine-3-carbonitrile], the IC50 was 0.4 nM.

The compound `Cc1c(-c2cc(Sc3ccc(F)cc3C#N)c3c(C#N)cnn3c2)cnn1CC(C)(C)O` [Example 486, 4-((2-cyano-4-fluorophenyl)thio)-6-(1-(2-hydroxy-2-methylpropyl)-5-methyl-1H-pyrazol-4-yl)pyrazolo[1,5-a]pyridine-3-carbonitrile] yielded a half-inhibitory concentration (IC50) of 9 nM.

The compound `N#Cc1ccccc1Sc1cc(-c2cnn([C@H]3CCCNC3)c2)cn2ncc(C#N)c12` [Example 487, (S)-4-((2-cyanophenyl)thio)-6-(1-(piperidin-3-yl)-1H-pyrazol-4-yl)pyrazolo[1,5-a]pyridine-3-carbonitrile] gave an IC50 of 0.4 nM.

On to `CC(=O)N[C@H]1CC[C@@H](n2ncc(-c3cc(Sc4nc(C)c(F)cc4F)c4c(C#N)cnn4c3)c2C)CC1` [Example 488, N-((1s,4s)-4-(4-(3-cyano-4-((3,5-difluoro-6-methylpyridin-2-yl)thio)pyrazolo[1,5-a]pyridin-6-yl)-5-methyl-1H-pyrazol-1-yl)cyclohexyl)acetamide], for which the IC50 was 1 nM.

Compound `CC(C)(C)n1cc(-c2cc(Sc3ncccc3F)c3c(C#N)cnn3c2)cn1` [Example 489, 6-(1-(tert-butyl)-1H-pyrazol-4-yl)-4-((3-fluoropyridin-2-y)thio)pyrazolo[1,5-a]pyridine-3-carbonitrile] yielded an IC50 of 3 nM.

In turn, `CC(C)(O)Cn1cc(-c2cc(Sc3ncccc3F)c3c(C#N)cnn3c2)cn1` [Example 490, 4-((3-fluoropyridin-2-yl)thio)-6-(1-(2-hydroxy-2-methylpropyl)-1H-pyrazol-4-yl)pyrazolo[1,5-a]pyridine-3-carbonitrile] had an IC50 of 2 nM.

In the case of `N#Cc1cnn2cc(-c3ccc(N4CCOCC4)nc3)cc(Sc3ncccc3F)c12` [Example 491, 4-((3-fluoropyridin-2-yl)thio)-6-(6-morpholinopyridin-3-yl)pyrazolo[1,5-a]pyridine-3-carbonitrile], the IC50 came to 1 nM.

In turn, `N#Cc1ccccc1Sc1cc(-c2cnn(C[C@@H](O)CO)c2)cn2ncc(C#N)c12` [Example 492, (R)-4-((2-cyanophenyl)thio)-6-(1-(2,3-dihydroxypropyl)-1H-pyrazol-4-yl)pyrazolo[1,5-a]pyridine-3-carbonitrile] yielded an IC50 of 1 nM. In other words, the single-digit nanomolar range.

In turn, `CC(C)(C)n1cc(-c2cc(Sc3ccccc3C#N)c3c(C#N)cnn3c2)cn1` [Example 493, 6-(1-(tert-butyl)-1H-pyrazol-4-yl)-4-((2-cyanophenyl)thio)pyrazolo [1,5-a]pyridine-3-carbonitrile] displayed an IC50 of 1 nM.

Values taken from patent US20240270741A1 (Cogent Biosciences, Inc., priority 2023, published 2024).
